These results are taken from PMC6792352, “Limited Chemical Structural Diversity Found to Modulate Thyroid Hormone Receptor in the Tox21 Chemical Library” (Environmental Health Perspectives, 2019).

Molecules are shown by their SMILES. Structures can show the parent of a compound that is named as a salt.

A short description of the first series: in vitro. The note with it: rat, gh3-tre-luc cells, AC50 (uM) modified / 1000.
As to `Cc1ccc2nc(-c3ccc(N)cc3)sc2c1S(=O)(=O)O`, the CC50 at 24 h is over 50 µM.
The compound `CCCCCCCCCCCCCCCC(=O)OC[C@@H](COP(=O)([O-])OCC[N+](C)(C)C)OC(=O)CCCCCCCCCCCCCCC` returned a CC50 at 24 h of over 50 µM.
In turn, `C=C[Si](OCCOC)(OCCOC)OCCOC` had a CC50 at 24 h of over 90 µM.
The same measure, in the same setting: with `CCCCCc1ccc(Cl)cc1` the figure was over 90 µM; with `CCCCCCCCCCCC[N+](C)(C)CCCS(=O)(=O)O`, 55.3 µM; with `CC(C)(c1cc(Br)c(OCCO)c(Br)c1)c1cc(Br)c(OCCO)c(Br)c1`, 44.3 µM.
The same measure, in the same setting: under `CCOc1ccc2c(c1)C(C)CC(C)(C)N2` (stereo not shown) stands over 90 µM; under `CC(CN)CCCN` (stereo not shown), over 90 µM; under `CCSC(=O)Cl`, over 100 µM.
Still for that read-out and setting: under `C[Si](O[Si](C)(C)C)O[Si](C)(C)C` stands over 90 µM; under `CC(C)(C)c1cc(CO)cc(C(C)(C)C)c1O`, 82.2 µM; under `Cc1cc(C)cc(C(=O)OC2C[C@H]3CC[C@@H](C2)N3C)c1` (stereo partly shown), 22.4 µM.
Compound `C[Si](C)O[Si](C)(C)O[Si](C)(C)O[Si](C)C` returned a CC50 at 24 h of over 90 µM.
Compound `CC#CCC(C)[C@H](O)/C=C/[C@@H]1[C@H]2c3cccc(CCCC(=O)O)c3O[C@H]2C[C@H]1O` (mixture of isomers) [Beraprost sodium] gave a CC50 at 24 h of over 50 µM.
Same read-out and setting: with `CC(=O)N(CC(O)CO)c1c(I)c(C(=O)NCC(O)CO)c(I)c(C(=O)NCC(O)CO)c1I` (mixture of isomers) [Iohexol] the figure was over 50 µM.
On the same count and under the same terms, under `COCC(=O)Nc1c(I)c(C(=O)NCC(O)CO)c(I)c(C(=O)N(C)CC(O)CO)c1I` (mixture of isomers) [Iopromide] stands over 20 µM; under `CCC(C)n1ncn(-c2ccc(N3CCN(c4ccc(OC[C@H]5CO[C@](Cn6cncn6)(c6ccc(Cl)cc6Cl)O5)cc4)CC3)cc2)c1=O` (mixture of isomers) [Itraconazole], 3.2 µM; under `OC[C@H]1O[C@@H](O[C@@H]2[C@@H](CO)OC(O)(CO)[C@H]2O)[C@H](O)[C@@H](O)[C@H]1O` (mixture of isomers) [Lactulose], over 50 µM.
The same measure, in the same setting: with `CCCCC(C)(O)C/C=C/[C@H]1[C@H](O)CC(=O)[C@@H]1CCCCCCC(=O)OC` (mixture of isomers) [Misoprostol] the figure was over 50 µM.
The compound `CC(C)(C)NCC(O)COc1cccc2c1C[C@H](O)[C@H](O)C2` (mixture of isomers) [Nadolol] showed a CC50 at 24 h of over 20 µM.
Take `C#C[C@]1(OC(C)=O)CC[C@H]2[C@@H]3CCC4=CC(=NO)CC[C@@H]4[C@H]3CC[C@@]21CC` (mixture of isomers) [Norgestimate]: the CC50 at 24 h was 30.6 µM.
Same read-out and setting: with `CCCCCCCCCCCCCC(=O)OCC(COP(=O)([O-])OCC[N+](C)(C)C)OC(=O)CCCCCCCCCCCCC` (racemic) [1,2-Ditetradecanoyl-rac-glycerol-3-phosphocholine] the figure was over 50 µM.
On the same count and under the same terms, with `NC(Cc1ccc(F)cc1)C(=O)O` (racemic) [4-Fluoro-dl-phenylalanine] the figure was 2.98 µM.
In turn, `CC1=C(C)C(=O)C(C(CCCCCC(=O)O)c2ccccc2)=C(C)C1=O` (racemic) [(+-)-7-(3,5,6-trimethyl-1,4-benzoquinon-2-yl)-7-phenylheptanoic acid] yielded a CC50 at 24 h of over 50 µM.
For the compound `COC(=O)C1=C(C)NC(C)=C(C(=O)OCCCN2CCC(c3ccccc3)(c3ccccc3)CC2)C1c1cccc([N+](=O)[O-])c1` (racemic) [(+/-) -Niguldipine hydrochloride (1:x)], the CC50 at 24 h was determined as 12.3 µM.
Still for that read-out and setting: under `CC(O)CCCCn1c(=O)c2c(ncn2C)n(C)c1=O` (racemic) [(+/-)-Lisofylline] stands over 50 µM; under `CN1C[C@@H]2c3ccccc3Oc3ccc(Cl)cc3[C@H]2C1` (racemic) [Asenapine], 33.1 µM; under `Cc1c(COC(=O)[C@@H]2[C@H](/C=C(\Cl)C(F)(F)F)C2(C)C)cccc1-c1ccccc1` (racemic) [Bifenthrin], over 90 µM.
The same measure, in the same setting: with `Cc1ccccc1CO[C@@H]1C[C@@]2(C(C)C)CC[C@]1(C)O2` (racemic) [Cinmethylin] the figure was over 90 µM.
Take `NC(CS)C(=O)O` (racemic) [DL-Cysteine]: the CC50 at 24 h was over 50 µM.
Compound `O=C[C@H](O)[C@@H](O)[C@H](O)[C@H](O)CO` (racemic) [DL-Glucose] registered a CC50 at 24 h of over 50 µM.
On the same count and under the same terms, with `NC(CCC(=O)O)C(=O)O` (racemic) [DL-Glutamic acid monohydrate] the figure was over 80 µM.
`CC[C@H](C)[C@H](N)C(=O)O` (racemic) [DL-Isoleucine] gave a CC50 at 24 h of over 50 µM.
The same measure, in the same setting: with `Cc1c(C)c2c(c(C)c1OC(=O)c1cccnc1)CC[C@@](C)(CCC[C@H](C)CCC[C@H](C)CCCC(C)C)O2` (racemic) [DL-alpha Tocopheryl nicotinate] the figure was over 50 µM; with `Fc1ccc([C@@]2(Cn3cncn3)O[C@@H]2c2ccccc2Cl)cc1` (racemic) [Epoxiconazole], over 90 µM; with `C[C@@]1(c2ccc(Oc3ccccc3)cc2)OC(=O)N(Nc2ccccc2)C1=O` (racemic) [Famoxadone], 39 µM.
On the same count and under the same terms, with `O=C(O)CCC/C=C\C[C@@H]1[C@@H](/C=C/[C@@H](O)COc2cccc(C(F)(F)F)c2)[C@H](O)C[C@@H]1O` (racemic) [Fluprostenol] the figure was over 50 µM; with `CC(C)n1c(/C=C/[C@H](O)C[C@H](O)CC(=O)O)c(-c2ccc(F)cc2)c2ccccc21` (racemic) [Fluvastatin], over 90 µM; with `O=C(C[C@H]1NCCC[C@@H]1O)Cn1cnc2cc(Br)c(Cl)cc2c1=O` (racemic) [Halofuginone hydrochloride], over 50 µM.
Same read-out and setting: under `CCC(=O)O[C@@H]1C[C@H]2CC[C@]1(C)C2(C)C` (racemic) [Isobornyl propanoate] stands over 90 µM; under `CCN(CC)C(=O)[C@]1(c2ccccc2)C[C@@H]1CN` (racemic) [Milnacipran hydrochloride], over 50 µM.
Compound `CNc1cc(OC)c(C(=O)N[C@@H]2CCN(Cc3ccccc3)[C@@H]2C)cc1Cl` (racemic) [Nemonapride] returned a cytotoxic concentration (CC50) at 24 h of over 50 µM.
In turn, `CC(C)(C)[C@H](O)[C@H](Cc1ccc(Cl)cc1)n1cncn1` (racemic) [Paclobutrazol] had a CC50 at 24 h of over 90 µM.
The same measure, in the same setting: under `C[C@@H](NCCc1ccc(O)cc1)[C@@H](O)c1ccc(O)cc1` (racemic) [Ritodrine hydrochloride] stands over 50 µM.
`O=C(O)[C@@H]1C[C@H](CP(=O)(O)O)CCN1` (racemic) [Selfotel] yielded a CC50 at 24 h of over 50 µM.
`CCCCCCCCN[C@@H](C)[C@H](O)c1ccc(SC(C)C)cc1` (racemic) [Suloctdil] showed a CC50 at 24 h of 4.84 µM.
Turning to `Cc1c(F)c(F)c(COC(=O)[C@H]2[C@@H](/C=C(\Cl)C(F)(F)F)C2(C)C)c(F)c1F` (racemic) [Tefluthrin], the CC50 at 24 h is over 90 µM.
Turning to `CC(C)N1CCN(c2ccc(OC[C@H]3CO[C@](Cn4cncn4)(c4ccc(Cl)cc4Cl)O3)cc2)CC1` (racemic) [Terconazole], the CC50 at 24 h was determined as 5.35 µM.
Still for that read-out and setting: under `COc1cc2c(cc1OC)[C@H]1CC(=O)[C@H](CC(C)C)CN1CC2` (racemic) [Tetrabenazine] stands over 50 µM; under `C[N@+]12CCCC[C@@H]1CCC(=C(c1cccs1)c1cccs1)C2` (racemic) [Tiquizium bromide], over 50 µM.
The same measure, in the same setting: with `C=C(C)C1CC=C(C)C(=O)C1` (racemic) [dl-Carvone] the figure was over 90 µM; with `CNC(C)Cc1ccccc1` (racemic) [dl-Methamphetamine hydrochloride], over 90 µM.
On to `NC(Cc1c[nH]c2ccccc12)C(=O)O` (racemic) [dl-Tryptophan], for which the CC50 at 24 h was over 50 µM.
The same measure, in the same setting: with `CC(=O)Oc1c(C)c(C)c2c(c1C)CC[C@@](C)(CCC[C@H](C)CCC[C@H](C)CCCC(C)C)O2` (racemic) [dl-alpha-Tocopheryl acetate] the figure was over 90 µM; with `COC(=O)C1=C(C)NC(C)=C(C(=O)O[C@@H]2CCCN(Cc3ccccc3)C2)[C@@H]1c1cccc([N+](=O)[O-])c1` (racemic) [rac Benidipine hydrochloride], 25.5 µM; with `O[C@@H](CNC[C@H](O)[C@H]1CCc2cc(F)ccc2O1)[C@@H]1CCc2cc(F)ccc2O1` (racemic) [rac Nebivolol hydrochloride], 7.99 µM.
The same measure, in the same setting: with `C[C@@H]1CC[C@H]2C(C)(C)C3CC12CC[C@@]3(C)O` (single isomer, unassigned; (+)) [(+)-Cedrol] the figure was 71.6 µM; with `C[C@H]1C[C@@H](O)CC(C)(C)C1` (stereo in doubt) [(1R,5R)-3,3,5-trimethylcyclohexanol], over 90 µM.
On the same count and under the same terms, with `CC(C)[C@H]1CC[C@@H](C)CC1=O` (stereo in doubt) [(2R,5R)-5-Methyl-2-(propan-2-yl)cyclohexanone] the figure was over 90 µM; with `CCC=CCCOC(=O)c1ccccc1O` (stereo in doubt) [(3Z)-Hex-3-en-1-yl salicylate], over 90 µM.

Still in this series, the particulars now being: rat, gh3-tre-luc cells, AC50 (uM) modified / 1000, Tox21_110001=Tox21_112688; viability, 1 nM T3 present, 24 h.
`CCCC1CCCCN1` (racemic) [dl-Coniine] yielded a CC50 at 24 h of over 50 µM.

The series is the same for the next values; noted with them: rat, gh3-tre-luc cells, AC50 (uM) modified / 1000, Tox21_110001=Tox21_113077; viability, 1 nM T3 present, 24 h.
As for `CNC(C)CC1CCCCC1` (racemic) [(+/-) Propylhexedrine], the CC50 at 24 h is over 50 µM.

Still in this series, the particulars now being: rat, gh3-tre-luc cells, AC50 (uM) modified / 1000, Tox21_110001=Tox21_301642; viability, 1 nM T3 present, 24 h.
`CC(C=O)Cc1ccc2c(c1)OCO2` (stereo not shown): the CC50 at 24 h is over 90 µM.

The same series, now with this note: rat, gh3-tre-luc cells, AC50 (uM) modified / 1000, Tox21_110001=Tox21_301840; viability, 1 nM T3 present, 24 h.
The compound `CC1C(=O)C[C@]2(C(C)C)C[C@H]12` (single isomer, unassigned; (-)) [(-)-alpha,beta-Thujone] registered a CC50 at 24 h of over 80 µM.
